# Experimental data reported in patent US20150031760A1, “PHARMACEUTICAL COMPOSITION FOR PREVENTING OR TREATING NERVOUS SYSTEM DISORDERS COMPRISING SULFURETIN OR PHARMACEUTICALLY ACCEPTABLE SALT THEREOF” (Research and Business Foundation SUNGKYUNKWAN UNIVERSITY, priority 2010, published 2015).
# How the values were obtained:
# SH-SY5Y cells = assay: LDH secretion (cytotoxicity) test; format: cell-based, human
# Experimental: The incubator was maintained at a temperature of 37° C., and a mixed gas of 95% air and 5% CO2 was continuously supplied thereto to provide suitable conditions for cell culture. The cells were cultured in a 6-well plate or a 96-well plate at each of densities of 1×10^6 and 2×10^4 cells/well 24 hours before the experiment. […] Sulfuretin was used in ethanol and used at a final concentration of 0.1% or less.
# To measure LDH secretion (cytotoxicity), an LDH cytotoxicity assay kit was used. 50 μl of the medium was taken from each well of the 96-well plate (in which the cells have been cultured) and dispensed into each well of a fresh 96-well plate, and 50 μl of a reaction reagent was added to each well, after which the plate was shielded from light. The plate was incubated in an incubator for 30 minutes, and the UV absorbance at 490 nm was measured using a microplate reader (Molecular device, USA).
# The measured absorbance was substituted into the following equation to calculate LDH secretion:
# LDH secretion (%)=(LDH secretion O.D. in medium/total LDH secretion O.D.)×100
# mice = assay: Scopolamine-induced cognitive impairment, spontaneous alternation behavior Y-maze test; format: in vivo; conditions: sulfuretin 1 mg/kg, p.o., one hour before test; scopolamine 0.5 mg/kg, i.p.
# Experimental: Male ICR mice (4-weeks-old, 18-20 g) were purchased from Koatech Co., Ltd. (Pyongtaek, Korea). Mice were housed 10 per cage, allowed access to water and food ad libitum, and maintained in constant temperature (23±1° C.) and humidity (55±5%) conditions under a 12 hour light/dark cycle (lights on 07:00 to 19:00 h). All experiments were conducted in accord with the NIH Guide for the Care and Use of Laboratory Animals and with the approval of the Institutional Animal Care and Use Committee of Sungkyunkwan University.
# The spontaneous alternation behavior was measured by Y-maze which consists of a horizontal maze (30 cm long and 5 cm wide, with walls 12 cm high) with three arms (labeled A, B, and C). The maze floor and walls are constructed of dark grey, polyvinyl plastic. Mice were initially placed within one arm, and the number of alternations (i.e., consecutive entry sequences of ABC, CAB, or BCA but not BAB) and the number of arm entries were manually recorded for each mouse over an 8 minutes period. One hour before each test, the mice were given sulfuretin (0.25, 0.5, or 1 mg/kg, p.o.). After 30 minutes, memory impairment was induced by administering scopolamine (0.5 mg/kg, i.p.). […] The percentage alternation was calculated according to the following equation: Percentage alternation=[(Number of alternations)/(Total arm entries−2)]×100. […]
# [1] = Free radical scavenging ability (antioxidant effect), DPPH test; format: biochemical; conditions: 30 minutes
# Experimental: 2,2-diphenyl-1-picrylhydrazyl (DPPH) was dissolved in 99.5% ethanol to a concentration of 0.1 mM. Sulfuretin was dissolved and diluted in ethanol to concentrations of 0.1, 1, 5, 10, 25, 50 and 100 μg/ml. 10 μl of the sample was added to 90 μl of DPPH and admixed several times with a pipette, and the mixture was incubated at room temperature for 30 minutes, and the absorbance at 517 nm was measured.
# Tau = assay: Western blot, amyloid beta25-35-induced hyperphosphorylation of Tau; format: cell-based, human; conditions: SH-SY5Y cells; pretreatment with sulfuretin at 20 μM; 20 μM amyloid beta25-35 (p<0.01)
smiles,measurement,setting,value
O=C1/C(=C/c2ccc(O)c(O)c2)Oc2cc(O)ccc21 [sulfuretin],LDH secretion,"SH-SY5Y cells; beta-amyloid-induced, sulfuretin 0.1 μg/ml",≤ 12%
same,LDH secretion,"SH-SY5Y cells; beta-amyloid-induced, sulfuretin 0.5 μg/ml",≤ 11%
same,LDH secretion,"SH-SY5Y cells; beta-amyloid-induced, sulfuretin 1 μg/ml",≤ 11%
same,LDH secretion,"SH-SY5Y cells; beta-amyloid-induced, sulfuretin 5 μg/ml",≤ 9%
same,LDH secretion,"SH-SY5Y cells; hydrogen peroxide-induced, sulfuretin 0.1 μg/ml",≤ 77%
same,LDH secretion,"SH-SY5Y cells; hydrogen peroxide-induced, sulfuretin 0.5 μg/ml",≤ 56%
same,LDH secretion,"SH-SY5Y cells; hydrogen peroxide-induced, sulfuretin 1 μg/ml",≤ 33%
same,LDH secretion,"SH-SY5Y cells; hydrogen peroxide-induced, sulfuretin 5 μg/ml",≤ 39%
same,decrease of spontaneous alternation behavior induced by scopolamine,mice,significantly inhibited
same,free radical scavenging ability (inhibition),[1]; sulfuretin 0.1 μg/ml,≥ 10%
same,free radical scavenging ability (inhibition),[1]; sulfuretin 1 μg/ml,≥ 18%
same,free radical scavenging ability (inhibition),[1]; sulfuretin 5 μg/ml,≥ 58%
same,free radical scavenging ability (inhibition),[1]; sulfuretin 10 μg/ml,≥ 70%
same,free radical scavenging ability (inhibition),[1]; sulfuretin 25 μg/ml,≥ 71%
same,free radical scavenging ability (inhibition),[1]; sulfuretin 50 μg/ml,≥ 73%
same,free radical scavenging ability (inhibition),[1]; sulfuretin 100 μg/ml,≥ 75%
same,amyloid beta25-35-mediated increases in phosphorylation of Tau proteins,Tau,significantly inhibited
